Measurements from article PMC6829886, “Inhibition of Non-Small Cell Lung Cancer Cells by Oxy210, an Oxysterol-Derivative that Antagonizes TGFβ and Hedgehog Signaling” (Cells, 2019).
Read-outs that look alike come from different tables or passages of the source.

Experiments:
[1] = system: Gli responsive luciferase reporter (endogenous Gli); experiment: Gli responsive luciferase reporter in Sufu-/- cells; type: cell-based, mouse; details: 72 hrs
Method: NIH3T3-E1 cells cultured in 24 well-plates at 90% confluence were transiently transfected with 0.1 μg of Smad response-element reporter (SBE-Luciferase) plasmid (Qiagen), or with 0.1 μg of Gli response-element reporter (pGL3b-8xGli-Luciferase) plasmid, and 10 ng of pSV40-Renilla-Luciferase plasmid (Promega, Madison, WI, USA) with or without co-transfection with 10ng of Gli1 overexpression vector, pSRα-Gli1 using a Lipofectamine LTX Plus transfection reagent, as previously described. Sufu-/- cells cultured in 24 well-plates at 90% confluence were transiently transfected with 0.1μg of pGL3b-8xGli-Luciferase plasmid, and 10 ng of pSV40-Renilla-Luciferase plasmid. 6 hrs after transfection, cells were treated with test agents for 72 h. […] Then the firefly and Renilla luciferase activities were measured using a dual luciferase kit (Promega) and a GloMax-96 Microplate Luminometer (Promega) or a plate reader-SpectraMax iD3 (Molecular Devices, San Jose, CA, USA). […]
Figure 5 Oxy210 acts downstream of Smo. […] After 72 h, RNA was extracted and analyzed by Q-RT-PCR for the expression of Hh target genes Gli1 and Hip, normalized to Oaz1 expression. […] Luciferase activity was measured and normalized to the Renilla luciferase activity. […]

Liver X Receptor (LXR) = type: cell-based, human
[2] = Dose escalation study with repeated once daily oral dosing for 7 days in mice; type: in vivo; details: once daily oral 50, 200 and 400 mg/kg for 7 days
Method: In an initial assessment of drug-like properties of Oxy210, we performed a pharmacokinetic (PK) study in mice. Oxy210, formulated in 3% DMSO + 7% Ethanol + 5% PEG400 + 85% corn oil, was administered to balb/c mice by oral gavage as a single dose of 50 mg/kg. Plasma samples were taken at 10 min, 30 min, 1 h, 2 h, 4 h, and 8h, followed by LC/MS analysis. […] Additional PK studies in mice were performed with Oxy210 in a dose escalation study with repeated once daily oral dosing (50 mg/kg, 200 mg/kg and 400 mg/kg) for 7 days.

A549 cells = experiment: Cell counting (proliferation) assay in A549 cells; type: cell-based, human; parameters: IC10 Estimate, dataset 2 - Fig 7a, log 10 scale Y: unit not given here; details: for IC50 / IC90: Homo sapiens
Method: A549 and H2030 cells cultured in RPMI 1640 containing 5% FBS in 12 well-plates at 20% confluence were treated with Oxy210 for 6 days and then trypsinized, spun down and resuspended in fresh medium. For the Carboplatin (CP) and Oxy210 co-treatment experiments, A549 cells cultured in RPMI 1640 containing 2% FBS in 12 well-plates at 20% confluence were treated with CP at different concentrations in the presence or absence of Oxy210 for 6 days. For the TGFβ-induced drug resistance assay, A549 cells cultured in RPMI 1640 containing 2% FBS in 12 well-plates at 10% confluence were pre-treated with TGFβ1 alone or together with Oxy210 for 3 days, and then treated with 20 μM CP for 4 days. An aliquot of cell suspension was applied to a hemocytometer and the cells were then counted under a light microscope.
Statistical analyses were performed using the StatView 5 program (SAS Institute, Cary, NC, USA). All p values were calculated using ANOVA and Fisher’s projected least significant difference (PLSD) significance test. A value of p < 0.05 was considered significant. The IC 50 dose-response curves shown in Figure 4b and Figure 7a–c were modeled using a five-parameter logistic model. This model allows for asymmetric curves and automatically estimates the mean maximum and minimum response. Based on this model, IC 50 values were estimated corresponding to the dose halfway between min and max response. Models of dose versus response and dose versus log response were also evaluated (see Supplementary Materials). The R square statistic was computed as a measure of model fit.
Figure 7 Inhibition of NSCLC cell proliferation by Oxy210. A549 (a), (c) and H2030 (b) cells were treated with the test agents as indicated in RPMI 1640 containing 5% FBS for 5 days and then were trypsinized and counted as described in Methods and Materials section. Data from a representative experiment are reported as the mean of triplicate determinations ± SD (* p < 0.05 vs. control; ** p < 0.01 vs. control).

Structure (SMILES): C[C@]12CC[C@H]3[C@@H](CC=C4C[C@@H](O)CC[C@@]43C)[C@@H]1CC[C@@H]2[C@](C)(O)CCc1cccnc1 [Oxy210, (3S,8S,9S,10R,13S,14S,17S)-17-((R)-2-hydroxy-4-(pyridin-3-yl)butan-2-yl)-10,13-dimethyl-2,3,4,7,8,9,10,11,12,13,14,15,16,17-tetradecahydro-1H-cyclopenta[a]phenanthren-3-ol]
- activity of Gli responsive luciferase reporter [1]: significantly inhibited
- induced expression of SREB1c (Liver X Receptor (LXR)): lack of induced expression
- PK linearity [2]: linear PK parameters and exposure
- tolerability [2]: well tolerated and apparently safe
- fold reduction (left shift) of the IC50 of CP (A549 cells; A549 cells, 2 μM Oxy210): about four-fold
- anti-proliferation potential of CP when combined (A549 cells; A549 cells, non-cytotoxic concentrations of CP (1 to 10 μM)): significantly improved
- IC10 Estimate, dataset 2 - Fig 7a, log 10 scale Y (A549 cells; A549 cells/well, log 10 scale Y): 2.61
- IC10 Estimate, dataset 2 - Fig 7a, original scale Y (A549 cells; A549 cells/well, original scale Y): 1.92 µM
- IC50 (A549 cells; A549 cells, 5% FBS, ± SE, read-out: IC50, anti-proliferative effect (cell counting)): 2.63 ± 1.01 µM
- IC50 (A549 cells; A549 cells/well, log 10 scale Y, read-out: IC 50 Estimate, dataset 2 - Fig 7a, log 10 scale Y (converted)): 4.23 µM
- IC90 (A549 cells; A549 cells/well, log 10 scale Y, read-out: IC90 Estimate, dataset 2 - Fig 7a, log 10 scale Y (converted)): 6.87 µM
- IC90 (A549 cells; A549 cells/well, original scale Y, read-out: IC90 Estimate, dataset 2 - Fig 7a, original scale Y): 4.18 µM
